The results in this text go back to US20250282799A1, “SUBSTITUTED PYRIDO[4,3-d]PYRIMIDINES AS KRAS MODULATORS” (Alterome Therapeutics, Inc., priority 2023, published 2025).

Data set [1] in a line: Pharmacokinetic evaluation, single dosing (oral and intravenous) in rats. It is filed as in vivo, male Sprague-Dawley rats. Set-up: unit not given here. The following applies: rat, plasma. The method, then: Pharmacokinetic profile for test compound was measured by single dosing in male Sprague-Dawley rats. Animal weights were typically over 200 grams, and animals were allowed to acclimate to their new environment for at least 3 days prior to the initiation of any studies. One set of animals was dosed intravenous with test compound, 2 mg/kg in 20% PEG400, 10% HS-15 Solutol, 70% 50 mM citrate buffer (pH 4.0). Intravenous dosing solution concentration was 1.0 mg/mL. Time of blood sampling was 5 minutes, 15 minutes, 30 minutes, 1 hour, 2 hours, 4 hours, 8 hours, and 24 hours following intravenous dosing. Another set of animals was dosed orally with test compound, 30 mg/kg in 20% PEG400, 10% HS-15 Solutol, 70% 50 mM citrate buffer (pH 4.0). Oral dosing solution concentration was 3.0 mg/mL. Time of blood sampling was 15 minutes, 30 minutes, 1 hour, 2 hours, 4 hours, 8 hours, and 24 hours following oral dosing. Blood samples (˜0.2 mL/sample) were collected via jugular vein and placed in tubes containing Heparin-Na. The blood samples in tubes were mixed and then placed on wet ice prior to centrifugation for plasma. The blood samples were centrifuged at 4000 g for 5 minutes at 4° C. to obtain plasma. The obtained plasma was separated and stored frozen at approximately −80° C.
All the plasma samples were analyzed using a Shimadzu (DGU-405) HPLC with an API 6500+MS/MS system following the manufacturer's instructions. All the analytes were detected with positive-mode electrospray ionization (ES+). A standard curve for each test compound was generated and used to measure test compound concentrations in the rat plasma samples. Based on the time course sampling, an area under the curve (AUC) was calculated for the oral group and intravenous group. The percentage of rat bioavailability is calculated based on the equation shown below.
where F is bioavailability, AUCPO is area under curve of oral dosing, AUCIV is area under curve of intravenous dosing, DoseIV is the intravenous dose and DosePO is the oral dose. The oral dosing for the experiments presented in Table 5 was performed at 10 mg/kg unless noted otherwise.

The target in data set [2] is KRAS (G12D)/CRAF (Homo sapiens (Human), UniProt P01116, G12D). The experiment in a line: TR-FRET biochemical KRAS:CRAF protein:protein interaction assay, KRAS (G12D). Type of data set: binding. The conditions noted are these: GMPPNP loaded Biotin-KRAS (G12D), FLAG CRAF RBD; read-out: TR-Fret_PPI KRAS (G12D)/CRAF IC50. In short, it runs like this:
(§1)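 Compound (10-point 3-fold series, 1% DMSO final) preincubated 30 min at room temperature with 20 nM biotin-KRAS mutant loaded with GMPPNP, in Hepes pH7.3 buffer with 5 mM MgCl2 and 10 uM GMP-PNP. Then 100 nM FLAG-CRAF RBD for 150 min, 1 nM Tb-anti-FLAG/5 nM SA-XL665 for 90 min; IC50 from normalized 665/620 ratio, 4-parameter fit.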
For orientation: Time-resolved FRET reads energy transfer from a long-lived donor to a nearby acceptor.

Data set [3] concerns the target KRAS (G12V)/CRAF (Homo sapiens (Human), UniProt P01116, G12V). The experiment in a line: TR-FRET biochemical KRAS:CRAF protein:protein interaction assay, KRAS (G12V). The following applies: GMPPNP loaded Biotin-KRAS (G12V), FLAG CRAF RBD; read-out: TR-Fret_PPI KRAS (G12V)/CRAF IC50. It is filed as binding. The essentials:
as §1

KRAS (G12D)/CRAF, sequence (P01116-2 other isoform, or with tags, fused parts or gaps G12D): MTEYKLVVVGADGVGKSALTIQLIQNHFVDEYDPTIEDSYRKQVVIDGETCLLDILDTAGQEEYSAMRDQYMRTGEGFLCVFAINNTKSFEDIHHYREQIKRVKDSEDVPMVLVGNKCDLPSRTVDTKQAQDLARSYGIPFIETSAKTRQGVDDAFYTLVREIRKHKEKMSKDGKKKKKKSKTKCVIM
KRAS (G12V)/CRAF, sequence (P01116-2 other isoform, or with tags, fused parts or gaps G12V): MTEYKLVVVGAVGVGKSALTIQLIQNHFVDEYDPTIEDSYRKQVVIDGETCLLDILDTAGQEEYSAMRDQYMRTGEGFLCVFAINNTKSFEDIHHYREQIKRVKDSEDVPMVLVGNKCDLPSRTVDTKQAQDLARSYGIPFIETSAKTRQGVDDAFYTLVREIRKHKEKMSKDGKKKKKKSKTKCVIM

As to `[2H]C([2H])(Oc1nc(N2CCCC[C@H]3[C@H](F)[C@H]32)c2cnc(-c3cc(N)cc4cc(F)c(F)c(C#C)c34)c(F)c2n1)[C@@]12CCCN1C[C@H](F)C2` [Example 16, 5-Ethynyl-6,7-difluoro-4-(8-fluoro-4-((1S,7R,8S)-8-fluoro-2-azabicyclo[5.1.0]octan-2-yl)-2-(((2R,7aS)-2-fluorotetrahydro-1H-pyrrolizin-7a(5H)-yl)methoxy-d2)pyrido[4,3-d]pyrimidin-7-yl)naphthalen-2-amine], the “IV (dose 2 mg/kg) (AUC/D) (h*mg/mL)” value in data set [1] is given as 718. For the same molecule, the “PO (dose 10 mg/kg) (AUC/D) (h*mg/mL)” value in data set [1] (oral) came to 75. For the same molecule, the figures for the IC50 in data set [2] and in data set [3] were 9.98 nM and 56.7 nM, respectively.

Consider `[2H]C([2H])(Oc1nc(N2CCOC[C@H]3[C@H](F)[C@H]32)c2cnc(-c3cc(N)cc4cc(F)c(F)c(C#C)c34)c(F)c2n1)[C@@]12CCCN1C[C@H](F)C2` [Example 28, 5-Ethynyl-6,7-difluoro-4-(8-fluoro-4-((1S,7S,8S)-8-fluoro-5-oxa-2-azabicyclo[5.1.0]octan-2-yl)-2-(((2R,7aS)-2-fluorotetrahydro-1H-pyrrolizin-7a(5H)-yl)methoxy-d2)pyrido[4,3-d]pyrimidin-7-yl)naphthalen-2-amine], for which the “IV (dose 2 mg/kg) (AUC/D) (h*mg/mL)” value in data set [1] is reported as 993. Besides, the “PO (dose 10 mg/kg) (AUC/D) (h*mg/mL)” value in data set [1] (oral) is recorded as 141. Besides, the IC50 in data set [2] was found to be 11.6 nM; in data set [3], 89.7 nM.

Consider `[2H]C([2H])(Oc1nc(N2CCCC[C@H]3[C@H](F)[C@H]32)c2cnc(-c3cc(N)cc4ccc(F)c(C#C)c34)c(F)c2n1)[C@@]12CCCN1C[C@H](F)C2` [Example 82, 5-Ethynyl-6-fluoro-4-(8-fluoro-4-((1S,7R,8S)-8-fluoro-2-azabicyclo[5.1.0]octan-2-yl)-2-(((2R,7aS)-2-fluorotetrahydro-1H-pyrrolizin-7a(5H)-yl)methoxy-d2)pyrido[4,3-d]pyrimidin-7-yl)naphthalen-2-amine], for which the “IV (dose 2 mg/kg) (AUC/D) (h*mg/mL)” value in data set [1] came to 490. Also, the “PO (dose 10 mg/kg) (AUC/D) (h*mg/mL)” value in data set [1] (oral) worked out at 115. For the same molecule, the IC50 in data set [2] was 8.11 nM; in data set [3] it was 39.2 nM.

Regarding `[2H]C([2H])(Oc1nc(N2CCOC[C@H]3[C@H](F)[C@H]32)c2cnc(-c3cc(N)cc4ccc(F)c(C#C)c34)c(F)c2n1)[C@@]12CCCN1C[C@H](F)C2` [Example 87, 5-Ethynyl-6-fluoro-4-(8-fluoro-4-((1S,7S,8S)-8-fluoro-5-oxa-2-azabicyclo[5.1.0]octan-2-yl)-2-(((2R,7aS)-2-fluorotetrahydro-1H-pyrrolizin-7a(5H)-yl)methoxy-d2)pyrido[4,3-d]pyrimidin-7-yl)naphthalen-2-amine], the “IV (dose 2 mg/kg) (AUC/D) (h*mg/mL)” value in data set [1] worked out at 494. Also, the “PO (AUC/D) (h*mg/mL), dose 30 mg/kg” value in data set [1] (oral, dose 30 mg/kg) was found to be 122. In addition, the IC50 came to 9.92 nM in data set [2] and 60 nM in data set [3].
